Results reported in US20140227289A1, “COMPOUNDS AND METHODS FOR TREATING INSULIN RESISTANCE SYNDROME” (priority 2011, published 2014).

Columns and labels:
human AGS cells = assay: Quantitative RT-PCR of FOXO target mRNAs in human AGS cells under ER stress; type: cell-based
Description: (§1) The expression of certain mRNAs was measured by quantitative reverse transcription polymerase chain reaction (RT-PCR). In this example, the mRNA was extracted and purified using RNeasy Mini Kit (Qiagen, Netherlands) with DNase to eliminate genomic DNA contamination. Reverse transcription to synthesize the first strand utilized oligo-dT primers. The mRNAs measured are known FOXO targets: […] (CHOP), Bim (anti- or pro-apoptotic regulators), Growth Arrest and DNA Damage gene (GADD45) and PERK. Bip2, which is not a FOXO target, was also measured as a control. Results were normalized to Kinesin mRNA.
Dimethyl sulfoxide (DMSO)-treated human AGS cells were used as a control, denoted as “ctrl”. The human AGS cells were grown in Roswell Park Memorial Institute (RPMI) media supplemented with 10% FBS, and treated with 10 μg/ml tunicamycin dissolved in DMSO at 1 mg/ml for 4 hours to induce ER stress. The tunicamycin treated cells are denoted as “TM”.
Quantitative RT-PCR was performed to show the relative level of the indicated human mRNA targets. The results are shown in FIG. 5A where normalized levels of mRNA transcripts were measured for the “TM” cells compared to the “ctrl” cells. […] It can be concluded that ER stress induces the expression of Bip2, CHOP, Bim and GADD45.
(§2) The tunicamycin treated (“TM”) cells were further treated with siRNA treatment to deplete PERK from human AGS cells. The siRNA sequence used was 5′-[…]-3′ (SEQ ID NO: 1). The siRNA was transfected into cells using HiPerFect reagent (Qiagen, Netherlands) for 3 days before tunicamycin treatment. The PERK-depleted cells are denoted as “PERK RNAi+TM”.
(§3) Quantitative RT-PCR was performed to show the relative level of the indicated human mRNA targets. The results are shown in FIG. 5B where normalized levels of the target mRNA transcripts were measured for the “TM” cells compared with the “PERK RNAi+TM” cells. The levels of these target mRNAs in PERK-depleted (“PERK RNAi+TM”) cells were normalized to the levels of tunicamycin-treated (“TM”) control cells.

PERK = assay: siRNA depletion of PERK in human AGS cells, quantitative RT-PCR; type: cell-based; details: siRNA transfected 3 days before tunicamycin treatment
Description: as §1, §2, §3

HEPG2 hepatocyte cells = assay: Expression of FOXO targets in serum starved, PI3K inhibited HEPG2 hepatocyte cells; type: cell-based, human; details: serum starved+LY+PERK inhibition vs serum starved+LY
Description: To test the effects of PERK inhibition on endogenous Foxo1 targets, the cells were serum starved to remove growth factors and treated with the PI3K inhibitor LY294002 (50 μM) to further reduce AKT activity (“serum starved+LY”) for 4 hours. This treatment can be viewed as a model for extreme insulin resistance, in that it removes the capacity of the cell to respond insulin signaling by activating AKT. Control cells were grown in DMEM supplemented with 10% FBS (“control with serum”). The endogenous human FOXO targets are BIM gene (a pro-apoptotic member of the BCL-2 protein family), Cyclin G2 gene (encoding a cyclin that blocks cell cycle entry), insulin receptor substrate 2 gene (IRS-2; encoding a cytoplasmic signaling molecule that mediates effects of insulin), p27KIP1 gene (encoding a cell cycle regulatory protein), pyruvate dehydrogenase lipoamide kinase isozyme 4 gene (PDK4; encoding a protein that inhibits the pyruvate dehydrogenase complex), phosphoenolpyruvate carboxykinase 2 (PCK2; encoding a mitochondrial enzyme), p21 gene (encoding a cyclin-dependent kinase inhibitor) and insulin receptor gene (INSR). The rp132 gene (a ribosomal protein gene) and the mActin gene (encoding a muscle-specific type actin) are not FOXO targets and were used as controls. […] Example 11A was repeated with HEPG2 hepatocyte cells instead.

HEPG2 liver cells = assay: Foxo1 target gene expression in palmitate treated (insulin resistant) HEPG2 liver cells; type: cell-based, human; details: palmitate treated cells further treated with PERK kinase inhibitor
Description: HEPG2 liver cells were treated with 0.75 mM of palmitate, a saturated fatty acid, for 17 hours to induce insulin resistance, and the effects of PERK inhibition were assessed by monitoring Foxo1 target gene expression. The Foxo1 target genes are pyruvate dehydrogenase lipoamide kinase isozyme 4 gene (PDK4; encoding a protein that inhibits the pyruvate dehydrogenase complex) and phosphoenolpyruvate carboxykinase 1 (PCK1; encoding […]).
The results are shown in FIG. 12A, where the data was normalized to Kinesin mRNA levels and to the level of the rp132 control mRNAs.
The palmitate treated cells were further treated by inhibiting PERK kinase inhibitor 5-Bromo-N4-2-pyridinyl-N2-[3-(1,2,3,6-tetrahydro-4-pyridinyl)-1H-indol-5-yl]-2,4-pyrimidinediamine.
The results are shown in FIG. 12B, where the data was normalized to Kinesin mRNA levels and to the level of the rp132 control mRNAs. It can be seen that PERK inhibition decreased the expression of the Foxo1 targets, PDK4 and PCK1.

human Foxo1 = assay: Foxo1 luciferase reporter assay in human H1299 cells; type: cell-based; details: 1 μM
Description: Human H1299 cells were transfected to express human Foxo1 (“FOXO1”) and co-transfected to express PERK (“FOXO1+PERK”). The transfected H1299 cells were treated with 1 μM PERK kinase inhibitor (“FOXO1+inhibitor” and “FOXO1+PERK+inhibitor”). The PERK kinase inhibitor has the chemical formula: 5-Bromo-N4-2-pyridinyl-N2-[3-(1,2,3,6-tetrahydro-4-pyridinyl)-1H-indol-5-yl]-2,4-pyrimidinediamine. The activity of the Foxo1 luciferase reporter gene was then measured in terms of normalized IRS-luciferase levels.

MCF-7 cells = assay: Expression of endogenous Foxo1 targets in serum starved, PI3K inhibited MCF-7 cells; type: cell-based, human; details: serum starved+LY+PERK inhibition vs serum starved+LY
Description: To test the effects of PERK inhibition on endogenous Foxo1 targets, the cells were serum starved to remove growth factors and treated with the PI3K inhibitor LY294002 (50 μM) to further reduce AKT activity (“serum starved+LY”) for 4 hours. This treatment can be viewed as a model for extreme insulin resistance, in that it removes the capacity of the cell to respond insulin signaling by activating AKT. Control cells were grown in DMEM supplemented with 10% FBS (“control with serum”). The endogenous human FOXO targets are BIM gene (a pro-apoptotic member of the BCL-2 protein family), Cyclin G2 gene (encoding a cyclin that blocks cell cycle entry), insulin receptor substrate 2 gene (IRS-2; encoding a cytoplasmic signaling molecule that mediates effects of insulin), p27KIP1 gene (encoding a cell cycle regulatory protein), pyruvate dehydrogenase lipoamide kinase isozyme 4 gene (PDK4; encoding a protein that inhibits the pyruvate dehydrogenase complex), phosphoenolpyruvate carboxykinase 2 (PCK2; encoding a mitochondrial enzyme), p21 gene (encoding a cyclin-dependent kinase inhibitor) and insulin receptor gene (INSR). The rp132 gene (a ribosomal protein gene) and the mActin gene (encoding a muscle-specific type actin) are not FOXO targets and were used as controls. […]

human Foxo1 (human) = human Foxo1 (human) (UniProt Q12778); assay: cell-based or functional assay
Chain of UniProt Q12778 (Q12778 whole entry): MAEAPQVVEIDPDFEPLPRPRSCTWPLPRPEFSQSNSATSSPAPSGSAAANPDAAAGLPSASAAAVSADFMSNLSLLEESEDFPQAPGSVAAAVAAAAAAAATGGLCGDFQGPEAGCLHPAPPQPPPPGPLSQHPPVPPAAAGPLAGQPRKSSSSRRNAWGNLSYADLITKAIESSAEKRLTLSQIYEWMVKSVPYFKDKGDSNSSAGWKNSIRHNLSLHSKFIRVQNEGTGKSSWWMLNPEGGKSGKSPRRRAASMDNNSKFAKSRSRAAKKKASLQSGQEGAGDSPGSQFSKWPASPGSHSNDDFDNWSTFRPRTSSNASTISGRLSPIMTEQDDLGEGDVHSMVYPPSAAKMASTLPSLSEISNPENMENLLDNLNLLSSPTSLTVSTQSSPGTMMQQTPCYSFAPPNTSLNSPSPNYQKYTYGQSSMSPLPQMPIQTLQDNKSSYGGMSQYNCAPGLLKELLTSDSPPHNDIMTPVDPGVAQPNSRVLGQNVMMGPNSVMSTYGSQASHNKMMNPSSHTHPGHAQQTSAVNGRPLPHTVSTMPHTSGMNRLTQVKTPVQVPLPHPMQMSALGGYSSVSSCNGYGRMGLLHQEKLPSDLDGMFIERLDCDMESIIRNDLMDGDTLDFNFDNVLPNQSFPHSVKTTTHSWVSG

FOXO-GFP = FOXO-GFP subcellular localization assay in Drosophila S2 cells; type: cell-based; details: 10 μg/ml of insulin for 30 min, serum free medium
Description: A FOXO-green fluorescent (GFP) fusion protein was expressed in Drosophila S2 cells by transient transfection. The Drosophila cells were grown in serum free medium and deprived of insulin. The transfected cells were treated with 10 μg/ml of insulin for 30 min and the subcellular localization of FOXO-GFP was scored by obtaining images of the FOXO-GFP expressing cells. The insulin treated cells were named sample (b). A control sample (a) was obtained by having no insulin treatment to the transfected cells. In sample (c), ER stress was induced by RNA interference (RNAi) to disrupt endoplasmic-reticulum-associated-protein degradation (ERAD) machinery. The disruption of ERAD machinery was done by treatment of dsRNA to deplete HMG-CoA reductase degradation protein 3 (Hrd3), thereby inducing ER stress. Thereafter, the cells were treated with insulin 4 days after the dsRNA treatment. In sample (d), ER stress was induced by dsRNA treatment to deplete Hrd3. PERK protein was also depleted using dsRNA treatment. Thereafter, the cells were treated with insulin 4 days after the dsRNA treatment.
The results are shown in FIG. 2, where N means predominantly nuclear, C means predominantly cytoplasmic and CN means both nuclear and cytoplasmic. […]

[1] = PERK RNAi+TM cells compared with TM cells

For 5′-CAAACUGUAUAACGGUUUATT-3′ [PERK RNAi], the “degree of induction of Foxo1 targets CHOP, Bim and GADD45” value (human AGS cells; [1]) was “reducing the degree of induction”, the “levels of Bip2 transcripts (not a FOXO target)” value (human AGS cells; [1]) was “comparable” and the “decrease of PERK levels compared to TM cells” value (PERK) was “more than 80%”.
Brc1cnc(Nc2ccc3[nH]cc(C4=CCNCC4)c3c2)nc1Nc1ccccn1 [PERK kinase inhibitor, 5-Bromo-N4-2-pyridinyl-N2-[3-(1,2,3,6-tetrahydro-4-pyridinyl)-1H-indol-5-yl]-2,4-pyrimidinediamine] was tested, and the “expression of rp132 and mActin (not FOXO target genes)” value (HEPG2 hepatocyte cells) was “did not reduce”, the “target genes expression (p27, PDK, Cyclin G, PCK2, p21, INSR)” value (HEPG2 hepatocyte cells) was “reduced the target genes expression” and the “expression of the Foxo1 targets PDK4 and PCK1” value (HEPG2 liver cells) was “decreased”. The “levels of rp123 and mActin (not Foxo1 targets)” value (HEPG2 liver cells) was “not substantially altered”, the “level of Foxo1 activity with co-expressed PERK (normalized IRS-luciferase levels)” value (human Foxo1; FOXO1+PERK vs FOXO1+PERK+inhibitor) was “reduced the level of Foxo1 activity” and the “activity of Foxo1 alone (normalized IRS-luciferase levels)” value (human Foxo1; FOXO1 vs FOXO1+inhibitor) was “did not affect”. The “target genes expression (BIM, Cyclin G2, IRS-2, p27KIP1, PDK4)” value (MCF-7 cells) was “reducing the target genes expression”.
“human protein kinase RNA-like endoplasmic reticulum kinase (PERK) protein (from UniProt Q9NZJ5 30-1116) (enzyme)” was tested, and the normalized luciferase levels of the human Foxo1 luciferase reporter (human Foxo1 (human)) was 2 fold.
For insulin, the “location of FOXO-GFP both nuclear and cytoplasmic” value (FOXO-GFP) was “about 30 % of cells” and the “location of FOXO-GFP cytoplasmic” value (FOXO-GFP) was “about 70 % of cells”.
In the case of tunicamycin [TM, reference compound], the “levels of Bip2, CHOP, Bim and GADD45 mRNA transcripts compared to ctrl cells” value (human AGS cells; 10 μg/ml tunicamycin for 4 hours, normalized to Kinesin mRNA) is reported as “significantly higher”.
